Where a name gives a salt, the structure may show the parent alone.
Row | Structure (SMILES) | melting point
1 | Cc1nc2ccc3c(c2o1)O[C@@H](CNCCCc1c[nH]c2ccc(C#N)cc12)CO3 (as salt: hydrochloride) [Example 30, 3-{3-[(2-Methyl-7,8-dihydro-[1,4]dioxino[2,3-g][1,3]benzoxazol-8-ylmethyl)amino]-propyl}-1H-indole-5-carbanitrile] | 148 to 151 °C
2 | Cc1ccc2c3c(ccc2n1)OCC(CNCCCCc1coc2ccccc12)O3 (centres unmarked) (as salt: fumarate) [Example 28, N-[4-(1-Benzofuran-3-yl)butyl]-N-(8-methyl-2,3-dihydro-[1,4]dioxino[2,3-f]quinolin-2-ylmethyl)amine] | 127 to 130 °C
3 | Cc1ccc2c3c(ccc2n1)OCC(CNCCc1csc2ccccc12)O3 (centres unmarked) (as salt: fumarate) [Example 21, N-[2-(1-Benzothien-3-yl)ethyl]-N-(8-methyl-2,3-dihydro-[1,4]dioxino[2,3-f]quinolin-2-ylmethyl)amine] | 124 to 127 °C
4 | Cc1ccc2c3c(ccc2n1)OCC(CNCCCc1c[nH]c2ccccc12)O3 (centres unmarked) (as salt: fumarate) [Example 6, N-[3-(1H-Indol-3-yl)propyl]-N-(8-methyl-2,3-dihydro-[1,4]dioxino[2,3-f]quinolin-2-ylmethyl)amine] | 202 to 203 °C
5 | Cc1ccc2c3c(ccc2n1)OCC(CNCCCCc1c[nH]c2ccc(F)cc12)O3 (centres unmarked) (as salt: fumarate) [Example 10, N-[4-(5-Fluoro-1H-indol-3-yl)butyl]-N-(8-methyl-2,3-dihydro-[1,4]dioxino[2,3-f]quinolin-2-ylmethyl)amine] | 138 to 154 °C
6 | Cc1ccc2c3c(ccc2n1)OCC(CNCCCc1cn(C)c2ccc(F)cc12)O3 (centres unmarked) (as salt: fumarate) [Example 12, N-[3-(5-Fluoro-1-methyl-1H-indol-3-yl)propyl]-N-(8-methyl-2,3-dihydro-[1,4]dioxino[2,3-f]quinolin-2-ylmethyl)amine] | 156 to 161 °C

Results, then the compound that gave them:

Row | melting point | Structure (SMILES)
7 | 75.9 to 83.7 °C | Cc1ccc2c3c(ccc2n1)OCC(CN(C)CCCn1ccc2ccc(F)cc21)O3 (centres unmarked) (as salt: hydrochloride) [Example 34, [3-(6-Fluoro-indol-1-yl)-propyl]-methyl-(8-methyl-2,3-dihydro-[1,4]dioxino[2,3-f]quinolin-2-ylmethyl)-amine]
8 | 122 to 127 °C | Cc1ccc2c3c(ccc2n1)OCC(CNCCCCn1ccc2ccc(F)cc21)O3 (centres unmarked) (as salt: hydrochloride) [Example 38, [4-(6-Fluoro-indol-1-yl)-butyl]-(8-methyl-2,3-dihydro-[1,4]dioxino[2,3-f]quinolin-2-ylmethyl)-amine]
9 | 140 °C (dec.) | Cc1nc2ccc3c(c2o1)O[C@@H](CN(C)CCCc1c[nH]c2ccc(C#N)cc12)CO3 (as salt: hydrochloride) [Example 31, 3-{3-[M thyl-(2-methyl-7,8-dihydro-[1,4]dioxino[2,3[-g][1,3]benzoxazol-8-ylmethyl)-amino]-propyl)}-1H-indole-5-carbonitrile]
10 | 164 to 170 °C | CCCN(CCCc1c[nH]c2ccc(F)cc12)CC1COc2ccc3nc(C)ccc3c2O1 (centres unmarked) (as salt: hydrochloride) [Example 45, [3-(5-Fluoro-1H-indol-3-yl)-propyl]-(8-methyl-2,3-dihydro-[1,4]dioxino[2,3-f]quinolin-2-ylmethyl)-propyl-amine]
11 | 117 to 120 °C | Cc1ccc2c3c(ccc2n1)OC[C@H](CNCCCc1csc2ccc(F)cc12)O3 (as salt: fumarate) [Example 51, N-[3-(5-Fluoro-1-benzothien-3-yl)propyl]-N-{[(2S)-8-methyl-2,3-dihydro[1,4]dioxino[2,3-f]quinolin-2-yl]methyl}amine]
